In patent publication US6534447B1, “Herbicidal pyridine compounds” (BASF Aktiengesellschaft, priority 1999, dated 2003):

What was measured:
Format in all cases: in vivo
[1] = test system: Alopecurus myosuroides (ALOMY, black grass); test: Post-emergence herbicidal evaluation; conditions: 3 weeks after treatment
Procedure: (§1) These acetone solutions are diluted with water and the resulting formulations applied at dosage levels equivalent of about 0.025 to 0.4 kg per hectare of test compound per pot. After spraying the plants are placed on greenhouse benches and are cared for in the usual manner, commensurate with conventional greenhouse practices. From 3 weeks after treatment, the seedling plants are examined and rated according to the rating system provided above. A rating 0 indicates growth as untreated control, a rating 9 indicates death.

[2] = test system: Setaria viridis (SETVI, green foxtail); test: Post-emergence herbicidal evaluation; conditions: 3 weeks after treatment
Procedure: as §1

[3] = test system: Echinochloa grus galli (ECHCG, barnyard grass); test: Post-emergence herbicidal evaluation; conditions: 3 weeks after treatment
Procedure: as §1

[4] = test system: Abutilon theophrasti (ABUTH, velvetleaf); test: Post-emergence herbicidal evaluation; conditions: 3 weeks after treatment
Procedure: as §1

[5] = test system: Dolium multiflorum (LOLMU, ryegrass); test: Post-emergence herbicidal evaluation; conditions: rate 0.100 kg/ha, 3 weeks after treatment
Procedure: as §1

[6] = test system: Stellaria media (STEME, chickweed); test: Post-emergence herbicidal evaluation; conditions: 3 weeks after treatment
Procedure: as §1

[7] = test system: Ipomoea hederacea (IPOHE, morning glory); test: Post-emergence herbicidal evaluation; conditions: 3 weeks after treatment
Procedure: as §1

[8] = test system: Matricaria inodora (MATIN, mayweed); test: Post-emergence herbicidal evaluation; conditions: 3 weeks after treatment
Procedure: as §1

[9] = test system: Galium aparine (GALAP, cleaver); test: Post-emergence herbicidal evaluation; conditions: 3 weeks after treatment
Procedure: as §1

Zea mays (ZEAMX, maize) = test: Pre-emergence herbicidal evaluation (crop); conditions: 3 weeks after treatment
Text: (§2) The pre-emergence herbicidal activity of the compounds of the present invention is exemplified by the following test in which the seeds of a variety of monocotyledonous and dicotyledonous plants are seperately mixed with potting soil and planted on top of approximately one inch of soil in separate post. After planting, the pots are sprayed with the selected aqueous acetone solution. containing test compound in sufficient quantity to provide the equivalent of about 0.025 to 0.4 kg per hectare of test compound per pot. The treated pots are then placed on greenhouse benches, watered and cared for in accordance with conventional greenhouse procedures. From 3 weeks after treatment, the tests are terminated and each pot is examined and rated according to the rating system set forth below. [table] [table]

[10] = test system: Triticum aestivum (TRZAW, winter wheat); test: Pre-emergence herbicidal evaluation (crop); conditions: 3 weeks after treatment
Text: as §2

[11] = test system: Glycine max (GLXMA, soyabeans); test: Pre-emergence herbicidal evaluation (crop); conditions: 3 weeks after treatment
Text: as §2

[12] = test system: Alopecurus myosuroides (ALOMY, black grass); test: Pre-emergence herbicidal evaluation; conditions: 3 weeks after treatment
Text: as §2

[13] = test system: Setaria viridis (SETVI, green foxtail); test: Pre-emergence herbicidal evaluation; conditions: 3 weeks after treatment
Text: as §2

[14] = test system: Echinochloa grus galli (ECHCG, barnyard grass); test: Pre-emergence herbicidal evaluation; conditions: 3 weeks after treatment
Text: as §2

[15] = test system: Abutilon theophrasti (ABUTH, velvetleaf); test: Pre-emergence herbicidal evaluation; conditions: 3 weeks after treatment
Text: as §2

[16] = test system: Stellaria media (STEME, chickweed); test: Pre-emergence herbicidal evaluation; conditions: 3 weeks after treatment
Text: as §2

[17] = test system: Ipomoea hederacea (IPOHE, morning glory); test: Pre-emergence herbicidal evaluation; conditions: 3 weeks after treatment
Text: as §2

[18] = test system: Matricaria inodora (MATIN, mayweed); test: Pre-emergence herbicidal evaluation; conditions: 3 weeks after treatment
Text: as §2

[19] = test system: Galium aparine (GALAP, cleaver); test: Pre-emergence herbicidal evaluation; conditions: 3 weeks after treatment
Text: as §2

Cc1cc(OCC=CSC(F)(F)F)nc(Oc2cc(C(F)(F)F)nn2C)c1 [Example 2, 2-(1-Methyl-3-trifluoromethylpyrazol-5-yloxy)-4-methyl-6-(3-trifluoromethylthioprop-2-enyloxy)pyridine]
2 (2 - Slight effect): TRZAW rating ([10]; rate 0.025 kg/ha) | GLXMA rating ([11]; rate 0.100 kg/ha)
4 (4 - Injury): STEME rating ([6]; rate 0.025 kg/ha) | ZEAMX rating (Zea mays (ZEAMX, maize); rate 0.025 kg/ha) | GLXMA rating ([11]; rate 0.400 kg/ha)
3 (3 - Moderate effect): TRZAW rating ([10]; rate 0.100 kg/ha) | ABUTH rating ([15]; rate 0.025 kg/ha)
7 (7 - Good herbicidal effect): ALOMY rating ([1]; rate 0.025 kg/ha) | ALOMY rating ([1]; rate 0.100 kg/ha) | ALOMY rating ([1]; rate 0.400 kg/ha) | SETVI rating ([2]; rate 0.025 kg/ha) | ABUTH rating ([4]; rate 0.100 kg/ha) | ABUTH rating ([4]; rate 0.400 kg/ha) | GALAP rating ([9]; rate 0.100 kg/ha) | GALAP rating ([9]; rate 0.400 kg/ha) | ECHCG rating ([14]; rate 0.025 kg/ha) | ABUTH rating ([15]; rate 0.100 kg/ha) | GALAP rating ([19]; rate 0.025 kg/ha)
6 (6 - Herbicidal effect): ABUTH rating ([4]; rate 0.025 kg/ha) | MATIN rating ([8]; rate 0.025 kg/ha) | MATIN rating ([8]; rate 0.100 kg/ha) | MATIN rating ([8]; rate 0.400 kg/ha) | GALAP rating ([9]; rate 0.025 kg/ha)
0 (0 - No effect): GLXMA rating ([11]; rate 0.025 kg/ha)
8 (8 - Approaching complete kill): SETVI rating ([2]; rate 0.100 kg/ha) | SETVI rating ([2]; rate 0.400 kg/ha) | ECHCG rating ([3]; rate 0.025 kg/ha) | ECHCG rating ([3]; rate 0.100 kg/ha) | ECHCG rating ([3]; rate 0.400 kg/ha) | LOLMU rating [5] | IPOHE rating ([7]; rate 0.025 kg/ha) | ALOMY rating ([12]; rate 0.025 kg/ha) | ALOMY rating ([12]; rate 0.100 kg/ha) | ALOMY rating ([12]; rate 0.400 kg/ha) | ECHCG rating ([14]; rate 0.100 kg/ha) | ECHCG rating ([14]; rate 0.400 kg/ha) | ABUTH rating ([15]; rate 0.400 kg/ha) | IPOHE rating ([17]; rate 0.400 kg/ha) | MATIN rating ([18]; rate 0.025 kg/ha) | MATIN rating ([18]; rate 0.100 kg/ha) | GALAP rating ([19]; rate 0.400 kg/ha)
9 (9 - Complete kill): IPOHE rating ([7]; rate 0.100 kg/ha) | IPOHE rating ([7]; rate 0.400 kg/ha) | SETVI rating ([13]; rate 0.025 kg/ha) | SETVI rating ([13]; rate 0.100 kg/ha) | SETVI rating ([13]; rate 0.400 kg/ha) | STEME rating ([16]; rate 0.025 kg/ha) | STEME rating ([16]; rate 0.100 kg/ha) | STEME rating ([16]; rate 0.400 kg/ha) | MATIN rating ([18]; rate 0.400 kg/ha)
5 (5 - Definite injury): STEME rating ([6]; rate 0.100 kg/ha) | STEME rating ([6]; rate 0.400 kg/ha) | ZEAMX rating (Zea mays (ZEAMX, maize); rate 0.100 kg/ha) | ZEAMX rating (Zea mays (ZEAMX, maize); rate 0.400 kg/ha) | TRZAW rating ([10]; rate 0.400 kg/ha) | IPOHE rating ([17]; rate 0.025 kg/ha) | IPOHE rating ([17]; rate 0.100 kg/ha)

Cc1cc(OCCC(Cl)SC(F)(F)F)nc(Oc2cc(C(F)(F)F)nn2C)c1 (stereo not shown) [Example 3, 2-(1-Methyl-3-trifluoromethylpyrazol-5-yloxy)-4-methyl-6-(3-chloro-3-trifluoromethylthiopropyloxy)pyridine]
8 (8 - Approaching complete kill): SETVI rating ([2]; rate 0.025 kg/ha) | ECHCG rating ([3]; rate 0.100 kg/ha) | LOLMU rating [5] | GALAP rating ([9]; rate 0.025 kg/ha) | GALAP rating ([9]; rate 0.100 kg/ha) | GALAP rating ([9]; rate 0.400 kg/ha) | ALOMY rating ([12]; rate 0.100 kg/ha) | ALOMY rating ([12]; rate 0.400 kg/ha) | SETVI rating ([13]; rate 0.025 kg/ha) | ECHCG rating ([14]; rate 0.400 kg/ha) | MATIN rating ([18]; rate 0.025 kg/ha)
6 (6 - Herbicidal effect): ECHCG rating ([3]; rate 0.025 kg/ha) | STEME rating ([6]; rate 0.400 kg/ha) | MATIN rating ([8]; rate 0.100 kg/ha) | ECHCG rating ([14]; rate 0.100 kg/ha)
3 (3 - Moderate effect): ZEAMX rating (Zea mays (ZEAMX, maize); rate 0.400 kg/ha) | TRZAW rating ([10]; rate 0.400 kg/ha)
2 (2 - Slight effect): ZEAMX rating (Zea mays (ZEAMX, maize); rate 0.025 kg/ha) | ZEAMX rating (Zea mays (ZEAMX, maize); rate 0.100 kg/ha) | TRZAW rating ([10]; rate 0.100 kg/ha) | GLXMA rating ([11]; rate 0.400 kg/ha) | GALAP rating ([19]; rate 0.025 kg/ha)
4 (4 - Injury): STEME rating ([6]; rate 0.025 kg/ha) | ECHCG rating ([14]; rate 0.025 kg/ha)
7 (7 - Good herbicidal effect): ALOMY rating ([1]; rate 0.100 kg/ha) | ALOMY rating ([1]; rate 0.400 kg/ha) | ABUTH rating ([4]; rate 0.100 kg/ha) | ABUTH rating ([4]; rate 0.400 kg/ha) | MATIN rating ([8]; rate 0.400 kg/ha) | ABUTH rating ([15]; rate 0.400 kg/ha) | IPOHE rating ([17]; rate 0.025 kg/ha) | GALAP rating ([19]; rate 0.100 kg/ha) | GALAP rating ([19]; rate 0.400 kg/ha)
5 (5 - Definite injury): ALOMY rating ([1]; rate 0.025 kg/ha) | ABUTH rating ([4]; rate 0.025 kg/ha) | STEME rating ([6]; rate 0.100 kg/ha) | MATIN rating ([8]; rate 0.025 kg/ha) | ALOMY rating ([12]; rate 0.025 kg/ha) | ABUTH rating ([15]; rate 0.025 kg/ha) | ABUTH rating ([15]; rate 0.100 kg/ha)
9 (9 - Complete kill): SETVI rating ([2]; rate 0.100 kg/ha) | SETVI rating ([2]; rate 0.400 kg/ha) | ECHCG rating ([3]; rate 0.400 kg/ha) | IPOHE rating ([7]; rate 0.025 kg/ha) | IPOHE rating ([7]; rate 0.100 kg/ha) | IPOHE rating ([7]; rate 0.400 kg/ha) | SETVI rating ([13]; rate 0.100 kg/ha) | SETVI rating ([13]; rate 0.400 kg/ha) | STEME rating ([16]; rate 0.025 kg/ha) | STEME rating ([16]; rate 0.100 kg/ha) | STEME rating ([16]; rate 0.400 kg/ha) | IPOHE rating ([17]; rate 0.100 kg/ha) | IPOHE rating ([17]; rate 0.400 kg/ha) | MATIN rating ([18]; rate 0.100 kg/ha) | MATIN rating ([18]; rate 0.400 kg/ha)
1 (1 - Trace effect): TRZAW rating ([10]; rate 0.025 kg/ha) | GLXMA rating ([11]; rate 0.025 kg/ha) | GLXMA rating ([11]; rate 0.100 kg/ha)
